Data from patent US20230337677A1, “ARYL AND PYRIDYL AMIDE PESTICIDES AND COMPOSITIONS THEREOF” (University of Florida Research Foundation, Incorporated, priority 2019, published 2023).

Columns and labels:
[1] = test system: Anopheles gambiae Akron kdr (Akdr) strain, resistant to pyrethroids; experiment: Topical toxicity (24 hour mortality), An. gambiae Akdr; type: in vivo; settings: for An. gambiae RR (resistance ratio): 24 h LD50 resistant strain (AKDR)/24 h LD50 susceptible strain (G3); for An. gambiae AKDR LD50: topical application, 24 h mortality, female adults, pyrethroid-resistant Akdr strain
Procedure, shortened: (§1)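 Females aged 3–6 days received 200 nL of compound in ethanol topically on the thorax, 10 per concentration per replicate, and were kept at 28° C with sugar water.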

[2] = test system: Aedes aegypti strain Orlando (sensitive); experiment: Topical toxicity (24 hour mortality), Ae. aegypti Orlando; type: in vivo; settings: topical application, 24 h mortality, female adults, susceptible Orlando strain
Procedure, shortened: as §1

[3] = test system: Anopheles gambiae G3 sensitive strain; experiment: Topical toxicity (24 hour mortality), An. gambiae G3; type: in vivo; settings: topical application, 24 h mortality, female adults, susceptible strain G3
Procedure, shortened: as §1

[4] = test system: Aedes aegypti strain Puerto Rico (PR, resistant to permethrin); experiment: Topical toxicity (24 hour mortality), Ae. aegypti Puerto Rico; type: in vivo; settings: for Ae. aegypti RR (resistance ratio): 24 h LD50 resistant strain (PR)/24 h LD50 susceptible strain (OR); for Ae. aegypti PR LD50: topical application, 24 h mortality, female adults, permethrin-resistant Puerto Rico strain
Protocol: (§2) The Aedes aegypti strains Orlando (sensitive) as well as the Puerto Rico (PR, resistant to permethrin) were used. The Anopheles gambiae (G3 sensitive strain, as well as Akron kdr (Akdr) strain, resistant to pyrethroids were also assessed. The larvae were provided by the USDA, Gainesville Fl, and raised in a pan with tap water maintained at 28° C. Larvae were fed a ground liver and yeast mixture, and pupae were placed in emergence cages. Adults were held at 28° C. and provided with cotton balls soaked in 10% sugar water for rearing and for all bioassays.
(§3) Female adults from 3 to 6 days were used for the experiments. The drug was dissolved in ethanol and then applied with a micro-applicator on the thorax, between the legs: 200 nL of drug per female mosquito, with different concentrations of the drug; 10 mosquitos were treated together per concentration per replicate, and put together in a small container with free access to sweet water. Mortality, i.e. no visible movement, was assessed 24 hours after treatment. Every compound was assessed on at least 3 different cohorts of mosquitoes, and the LD50 values and slopes were determined with Probit analysis, corrected with Abbott's formula.

[5] = test system: Aedes aegypti and Anopheles gambiae female adults; experiment: Analysis of topical toxicity (statements in words, species not given); type: in vivo; settings: structure-activity analysis of Table 4
Protocol: as §2
as §3, with “formula. […]” for “formula.”

[6] = test system: Aedes aegypti mosquitoes, insecticide-susceptible Orlando strain; type: in vivo; settings: for 1 h % Repellency, 100 μg/cm^2: screened at 100 μg/cm^2, strain not given; for 1 h Repellency EC50, μg/cm^2: (OR)
Procedure, shortened: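 Sixteen female mosquitoes per glass tube facing netting-shielded filter paper treated with acetone solutions (30-0.01 μg/ml; screen at 100 μg/cm^2), no contact. Proportion on treated side scored up to 60 min, then flight-out checked 30 min; mortality after 24 hr constant exposure.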

[7] = test system: Aedes aegypti mosquitoes, insecticide-susceptible Orlando strain; experiment: whole plant or invertebrate; settings: 24 h; for mortality at 100 µg/cm2: read-out: 24 h % Mortality, 100 μg/cm^2
[8] = test system: Aedes aegypti mosquitoes, insecticide-susceptible Orlando strain; settings: for 24 h LC50, μg/cm^2: LC50 (OR)
[9] = test system: Aedes aegypti mosquitoes, pyrethroid-resistant Puerto Rico strain; experiment: Vapor repellency glass tube assay (1 h), resistant strain; type: in vivo; settings: with resistance ratio (PR)

Structure (SMILES)	An. gambiae RR (resistance ratio) [1]	An. gambiae AKDR LD50 [1]	Ae. aegypti OR LD50 [2]	An. gambiae G3 LD50 [3]	Ae. aegypti RR (resistance ratio) [4]	topical toxicity, statement in words (Example 10) [5]	further results
O=C(Nc1cc(Br)nc(Br)c1)C(F)(F)C(F)(F)C(F)(F)C(F)(F)C(F)(F)F [GMR056]	0.4	3.2 ng/mg	15 ng/mg	8.6 ng/mg	0.8		Ae. aegypti PR LD50 [4]: 12.10 ng/mg
O=C(NC(=O)c1cc(Cl)nc(Cl)c1)c1cc(Cl)nc(Cl)c1 [GMR117]			>1500 ng/mg			reduced activity	1 h % Repellency, 100 μg/cm^2 ([6]; 1 h): 62%; vapor repellency / mortality, statement in words (Example 8) ([6]; structure-activity analysis of Table 2): some repellency and mortality; mortality at 100 µg/cm2 [7]: 100%
O=C(Nc1cc(Cl)nc(C(F)(F)F)c1)C(F)(C(F)(F)F)C(F)(F)F [GMR092, N-(2-chloro-6-(trifluoromethyl)pyridin-4-yl)-2,3,3,3-tetrafluoro-2-(trifluoromethyl)propanamide]	0.3	3.30 ng/mg	8.8 ng/mg	9.60 ng/mg		retained high mortality	
CC(F)(F)C1(C(=O)Nc2cc(Cl)nc(Cl)c2)CC1 [GMR076]		>100 ng/mg	719 ng/mg			reduced toxicity	
C/C=C\C[C@H]1C(=O)CC[C@@H]1CC(=O)Nc1cc(F)c(F)c(F)c1 [GMR098]		>1000 ng/mg	>6000 ng/mg	>1000 ng/mg		reduced toxicity	24 h % Mortality, 100 μg/cm^2 ([8]; in vivo): 0%; 1 h % Repellency, 100 μg/cm^2 ([6]; 1 h): 18%
O=C(Nc1cc(Cl)nc(Cl)c1)C(F)(C(F)(F)F)C(F)(F)F [GMR053]	0.5	2.7 ng/mg	17 ng/mg	5.8 ng/mg	0.4	retained high mortality	Ae. aegypti PR LD50 [4]: 7.10 ng/mg
CCCCCC(=O)Nc1cc(Cl)nc(Cl)c1 [GMR054]		>100 ng/mg	>3000 ng/mg	>100 ng/mg		reduced activity	
CCOC(=O)Nc1cc(Cl)nc(Cl)c1 [GMR032]	3.6	66.0 ng/mg	892 ng/mg	18.3 ng/mg		promising activity	
CC(C)(C)OC(=O)Nc1cc(Cl)nc(Cl)c1 [GMR033]	2.2	46.7 ng/mg	1199 ng/mg	21.4 ng/mg		promising activity	
O=C(Nc1cc(Cl)nc(Cl)c1)C(F)F [GMR028]	0.7	28.2 ng/mg	266 ng/mg	43.1 ng/mg	3.2		1 h % Repellency, 100 μg/cm^2 ([6]; 1 h): 12%; mortality at 100 µg/cm2 [7]: 59%; Ae. aegypti PR LD50 [4]: 854 ng/mg
O=C(Nc1cc(Cl)nc(Cl)c1)C(F)(F)Sc1ccc(F)cc1 [GMR147]			1983 ng/mg			reduction in toxicity	
C#C[C@@H]1[C@@H](C(=O)Nc2cc(Cl)nc(Cl)c2)C1(C)C [GMR086]		>50 ng/mg	>6000 ng/mg	>50 ng/mg		reduced toxicity	
O=C(Nc1cc(Cl)nc(Cl)c1)C(F)(F)F [GMR029]	1.6	45.3 ng/mg	190 ng/mg	27.9 ng/mg	1.3		24 h LC50, μg/cm^2 [8]: 181 μg/cm^2; 1 h % Repellency, 100 μg/cm^2 ([6]; 1 h): 42%; mortality at 100 µg/cm2 [7]: 24%; Ae. aegypti PR LD50 [4]: 238 ng/mg
CCN(CC)C(=O)c1cccc(C)c1 [DEET, N,N-diethyl-m-toluamide, reference compound]							1 h Repellency EC50, μg/cm^2 (RR) [9]: 79 μg/cm^2; 1 h Repellency EC50, μg/cm^2 ([6]; 1 h): 35 μg/cm^2; response in glass tube assay (FIG. 1) ([6]; representative response, in words): Mosquitoes moved away from the DEET treated side
O=C(Nc1c(F)c(F)nc(F)c1F)C(F)(F)C(F)(F)C(F)(F)C(F)(F)C(F)(F)F [GMR057]	0.6	15.7 ng/mg	20 ng/mg	28.4 ng/mg	0.4		Ae. aegypti PR LD50 [4]: 8.90 ng/mg
O=C(Nc1cc(Cl)nc(C(F)(F)F)c1)C(F)(F)C(F)(F)C(F)(F)C(F)(F)C(F)(F)F [GMR055]	0.4	4.0 ng/mg	10.5 ng/mg	11.0 ng/mg	0.6		Ae. aegypti PR LD50 [4]: 5.90 ng/mg
O=C(Nc1c(Cl)cc(C(F)(F)F)cc1Cl)C(F)(F)C(F)(F)F [GMR138, N-(2,6-dichloro-4-(trifluoromethyl)phenyl)-2,2,3,3,3-pentafluoropropanamide]	0.8	90.00 ng/mg	57.6 ng/mg	120.00 ng/mg			24 h LC50, μg/cm^2 [8]: 0.3 μg/cm^2; 1 h Repellency EC50, μg/cm^2 ([6]; 1 h): 5.3 μg/cm^2; 1 h % Repellency, 100 μg/cm^2 ([6]; 1 h): 66%; mortality at 100 µg/cm2 [7]: 100%
O=C(Nc1cc(Cl)nc(Cl)c1)C(F)(F)C(F)(F)C(F)(F)C(F)(F)C(=O)Nc1cc(Cl)nc(Cl)c1 [GMR077]		>100 ng/mg	5373 ng/mg			reduced activity	
CN(C(=O)C(F)(F)C(F)(F)C(F)(F)F)c1cc(Cl)nc(Cl)c1 [GMR095]	0.6	775.00 ng/mg	1576 ng/mg	1300.00 ng/mg			24 h LC50, μg/cm^2 [8]: 14 μg/cm^2; 1 h Repellency EC50, μg/cm^2 ([6]; 1 h): 10 μg/cm^2; 1 h % Repellency, 100 μg/cm^2 ([6]; 1 h): 84%; mortality at 100 µg/cm2 [7]: 100%
O=C(Nc1cc(F)c(F)c(F)c1)C(F)(F)C(F)(F)OC(F)(F)F [GMR100]		>1000 ng/mg	2374 ng/mg	>1000 ng/mg			24 h LC50, μg/cm^2 [8]: 15 μg/cm^2; 1 h Repellency EC50, μg/cm^2 ([6]; 1 h): 3 μg/cm^2; knockdown in 1 hr repellency test (XXkd) ([6]; screened at 10 μg/cm^2, 1 h, out of 16 females): 10; mortality at 10 µg/cm2 ([7]; read-out: 24 h % Mortality): 21%
CCCCCC(=O)Nc1cc(Cl)nc(C(F)(F)F)c1 [GMR067]		3506 ng/mg	3506 ng/mg			reduced activity	
O=C(Nc1cc(Cl)nc(Cl)c1)c1c(F)c(F)c(F)c(F)c1F [GMR089]		>100 ng/mg	>6000 ng/mg	>100 ng/mg		reduction in toxicity	
CNC(=O)Oc1ccccc1OC(C)C [Propoxur]	63	201 ng/mg	3.0 ng/mg	3.2 ng/mg	0.0		
O=C(Nc1cc(Cl)nc(Cl)c1)C(F)(F)C(F)(F)F [GMR030]	1.5	14.2 ng/mg	49 ng/mg	9.6 ng/mg	1.0		24 h LC50, μg/cm^2 [8]: 35 μg/cm^2; 1 h % Repellency, 100 μg/cm^2 ([6]; 1 h): 28%; mortality at 100 µg/cm2 [7]: 85%; Ae. aegypti PR LD50 [4]: 50 ng/mg
